Measured values published in patent publication US10195466B2, “Method for treating skin cancer using radiation therapy” (HACKENSACK UNIVERSITY MEDICAL CENTER, priority 2014, dated 2019).

Key:
[1] = tested on: melanoma cell lines WC00046, WC00060 and WC00081; experiment: Cell survival (cell count) after irradiation with or without mitochondrial inhibitors; format: cell-based, human; conditions: compared to untreated cells, FIG. 1B; for cell killing of melanoma cells: inhibitor combined with high dose rate 2,400 mu/min, 5 μM in medium; for survival rates: melanoma cells, doses 2 Gy, 4 Gy and 8 Gy at 2,400 mu/min and 400 mu/min
Protocol: Three melanoma cell lines; WC00046, WC00060 and WC00081 were used in these examples, in which WC00046 was the most aggressive cell line (metastatic stage II), WC00060 was least aggressive (stage I, primary tumor site) and WC00081 was the medium aggressive (malignant melanoma primary site), purchased from Coriell Institute of Camden, N.J. The primary HEM (human epidermal melanocytes) was purchased from ScienCell Research Laboratories of Carlsbad, Calif. (#2220). Melanoma cells were grown in RPMI (Invitrogen) with 10% FBS, 1% Penicillin/Streptomycin. HEM cells were grown in Mel-M media (ScienCell Research Laboratories, Catalog number 2201) supplemented with 5 ML, Mel GS (ScienCell Research Laboratories, Catalog number 2252), 2.5 ML FBS (ScienCell Research Laboratories, Catalog number 0002) and 5 ML penicillin/Streptomycin solution (ScienCell Research Laboratories, Catalog number 0503), which is a complete medium designed for optimal growth of normal human dermal-derived melanocytes in vitro.
Two mitochondrial inhibitors Oligomycin (Sigma Aldrich # O4876) and Rotenone (Sigma Aldrich #R8875) were used. An optimal concentration of 0.5 uM were used for both melanoma cell lines and HEM added to the growth medium and removed after the irradiation. Dilutions were made in DMSO according to manufacturer's instructions.
Melanoma cell lines WC00046, WC00060 and WC00081 (purchased from Coriell Institute of Camden, N.J.) were seeded at 5×10^5 cells in T-25 culture flasks (BD-Falcon, Franklin Lakes, N.J., Catalog #356536 or equivalent) containing either RPMI media (Invitrogen, Carlsbad, Calif., Catalog #11875119 or equivalent) with 10% fetal bovine serum (FBS; ATCC Catalog #30-2020 or equivalent), 1% Penicillin/Streptomycin (GIBCO, Carlasbad, Calif., Catalog #15140 or equivalent) or RPMI media with 10% FBS, 1% Penicillin/Streptomycin, 5 μM Oligomycin (Sigma-Aldrich, St. Louis, Mo., Catalog #04876) or RPMI media with 10% FBS, 1% Penicillin/Streptomycin, 5 μM Rotenone (Sigma-Aldrich, St. Louis, Mo., Catalog #R8875). Human Epidermal Melanocytes (HEM) (ScienCell Research Laboratories, Carlsbad, Calif., Catalog #2220) were seeded at 5×10^5 cells in a T-25 culture flask (BD-Falcon, Franklin Lakes, N.J., Catalog #356536 or equivalent) containing either Mel-M media (ScienCell Research Laboratories, Carlsbad, Calif., Catalog #2201) or Mel-M media, 5 μM Oligomycin or Mel-M media, 5 μM Rotenone. Cells were allowed to settle and adhere to the T-25 culture flasks by overnight incubation in a humidified incubator at 37° C., 5% CO2. […] Cells were counted and cell survival (%) was recorded two (2) days and seven (7) days post radiation.

[2] = tested on: Human Epidermal Melanocytes (HEM); experiment: as above; format: cell-based; conditions: doses 2 Gy, 4 Gy and 8 Gy at 2,400 mu/min and 400 mu/min, compared to untreated cells, FIG. 1B
Protocol: Three melanoma cell lines; WC00046, WC00060 and WC00081 were used in these examples, in which WC00046 was the most aggressive cell line (metastatic stage II), WC00060 was least aggressive (stage I, primary tumor site) and WC00081 was the medium aggressive (malignant melanoma primary site), purchased from Coriell Institute of Camden, N.J. The primary HEM (human epidermal melanocytes) was purchased from ScienCell Research Laboratories of Carlsbad, Calif. (#2220). Melanoma cells were grown in RPMI (Invitrogen) with 10% FBS, 1% Penicillin/Streptomycin. […]
Melanoma cell lines WC00046, WC00060 and WC00081 (purchased from Coriell Institute of Camden, N.J.) were seeded at 5×10^5 cells in T-25 culture flasks (BD-Falcon, Franklin Lakes, N.J., Catalog #356536 or equivalent) containing either RPMI media (Invitrogen, Carlsbad, Calif., Catalog #11875119 or equivalent) with 10% fetal bovine serum (FBS; ATCC Catalog #30-2020 or equivalent), 1% Penicillin/Streptomycin (GIBCO, Carlasbad, Calif., Catalog #15140 or equivalent) or RPMI media with 10% FBS, 1% Penicillin/Streptomycin, 5 μM Oligomycin (Sigma-Aldrich, St. Louis, Mo., Catalog #04876) or RPMI media with 10% FBS, 1% Penicillin/Streptomycin, 5 μM Rotenone (Sigma-Aldrich, St. Louis, Mo., Catalog #R8875). […] Cells were counted and cell survival (%) was recorded two (2) days and seven (7) days post radiation.

melanoma cells [3] = experiment: Mitotracker Red assay of mitochondrial activity in irradiated cells; format: cell-based, human; conditions: irradiated cells with mitochondrial respiration blocked, versus non-irradiated control (Dose 0); FIG. 2A
Protocol: Mitotracker Red CMXRos (Invitrogen-M7512) was used for mitotracker assay. Stock solution was prepared in anhydrous DMSO, and the aliquots were stored in −30° C. Stock solution was diluted with culture media prior to the assay. Cells were treated with Mitotracker working solution (200 nM) and incubated for 15 minutes (37° C., 5% CO2). Labeling solution was removed and cells were washed with 1×PBS followed by fixing with 2% PFA (paraformaldehyde) for 30 minutes at room temperature in dark. Cells were washed with 1×PBS and mounted using DAPI and images were taken immediately.
It is well-known that melanoma cells up-regulate mitochondrial respiration to partly overcome the damage caused by radiation treatment (Rafehi, H et al., “Clonogenic assay: adherent cells.” J. Vis. Exp. 2011 Mar. 13;(49). pii: 2573. doi: 10.3791/2573). In this study, Mitotracker® Red was used to determine mitochondrial activity in irradiated melanoma cells and HEM. Mitotracker® Red is a cell permeant mitochondrial probe that diffuses through the plasma membrane of active mitochondria and is retained there even after fixation of cells. That is, mitochondrial activity is a direct measure of the amount of fluorescent Mitotracker® Red accumulated within the mitochondria.
A Mitotracker® Red CMXRos (Invitrogen, Carlsbad, Calif., Catalog #M7512 or equivalent) assay was performed according to manufacturer's instructions. […]

melanoma cells [4] = experiment: MTT cell proliferation assay in irradiated cells; format: cell-based, human; conditions: seven days post-irradiation, relative to irradiation alone, FIG. 2B
Protocol: MTT assay was carried out to measure the cell proliferation in radiated cells. Cells were seeded in […] and incubated with MTT assay reagent (tetrazolium dye). MTT assay is based on the ability of metabolically active cells to reduce the yellow tetrazolium salt (MTT) by to form insoluble purple formazan crystals, which are solubilized by the addition of a detergent and quantified (i.e., color). The MTT Cell Proliferation Assay measures the cell proliferation rate and conversely, when metabolic events lead to apoptosis or necrosis, the reduction in cell viability. The number of assay steps has been minimized as much as possible to expedite sample processing. The MTT Reagent yields low background absorbance values in the absence of cells. For each cell type the linear relationship between cell number and signal produced is established, thus allowing an accurate quantification of changes in the rate of cell proliferation.
An MTT (tetrazolium dye) assay was performed to measure cell proliferation in irradiated melanoma cells and HEM. The MTT assay is based on the ability of metabolically active cells to reduce yellow tetrazolium salt (MTT) to insoluble purple formazan crystals. The formazan crystals are solubized in detergent and quantified by colorimetric analysis. […]

HEM = experiment: Colony formation (clonogenic) assay after irradiation; format: cell-based, human; conditions: HEM treated with mitochondrial inhibitors and irradiated; FIG. 4B
Protocol: (§1) Radiated cells were washed with 1× phosphate buffer saline (PBS), trypsinized and harvested in corning tubes (15 ml, BD Falcon). These cells were serially diluted (1:100, 1:1000, 1:10000) and plated in Petri-dishes (Tissue culture Petri dishes, BD Falcon) with complete media and allowed to grow colonies for 7-21 days. Colonies were stained with Hematoxylin for 30 min after fixing the cells in 100% ethanol for about 20-30 min. Petridishes with stained colonies were washed in water, dried overnight and counts were recorded.
(§2) The colony formation assay, or clonogenic assay, is used to determine the ability of a cell to proliferate (i.e., maintain its reproductive ability to form a colony or clone). This assay has been widely used in radiation biology to assess the effects of ionizing radiation on cells (Sadagopan, R. et al., “Characterization and clinical evaluation of a novel IMRT quality assurance system.” Journal of Applied Clinical Medical Physics 10.2 (2009)). In this study, three (3) melanoma cell lines were used to compare the effects of different radiation dose rates on cell proliferation. Melanoma cell lines were selected based on their known resistance to radiation therapy. Human epidermal melanocytes (HEM) were used to determine the effect of ionizing radiation on normal cells.
(§3) Cells were maintained and irradiated as described in Example 1. Irradiated cells were washed with 1× phosphate buffer saline (PBS) (Sigma Aldrich, St. Louis, Mo., Catalog No. P5493, or equivalent), trypsinized and harvested in 15 mL conical tubes (BD-Falcon, Franklin Lakes, N.J., Catalog #352095 or equivalent). The cells were serially diluted (1:100, 1:1000, 1:10000) and plated in Petri-dishes (BD-Falcon, Franklin Lakes, N.J., Catalog #351007 or equivalent) with the appropriate complete media and allowed to grow colonies for 7-21 days. Colonies were stained with hematoxylin (Sigma-Aldrich, St. Louis, Mo., Catalog #H9627 or equivalent) for 30 minutes after fixing the cells in 100% ethanol (VWR, Radnor, Pa., Catalog #71006-012 or equivalent) for about 20-30 minutes. Petridishes with stained colonies were washed in water, dried overnight and colony counts were recorded.

[5] = tested on: melanoma cells WC00046, WC00060 and WC00081; experiment: as above; format: cell-based, human; conditions: FIG. 4B
Protocol: as §1, §2, §3

[6] = WC00046, 2,400 mu/min, treated with mitochondrial inhibitors
[7] = WC00046, WC00060 and WC00081, 2,400 mu/min, relative to irradiation alone

C=C(C)[C@H]1Cc2c(ccc3c2O[C@@H]2COc4cc(OC)c(OC)cc4[C@@H]2C3=O)O1 [Rotenone]
cell killing of melanoma cells [1]: augment the cell killing
survival rates [1]: significantly lower survival rates
survival rates [2]: significantly lower survival rates
mitochondrial activity (Mitotracker Red fluorescence) (melanoma cells [3]): reduced below basal levels
cell survival (%) (melanoma cells [4]): further reduced
viability and proliferation (HEM): retained viability and proliferation
cell survival (%) [5, 6]: 25%
cell survival (%) [5, 7]: further reduced

CC[C@H]1/C=C/C=C/C[C@@H](C)[C@H](O)[C@@](C)(O)C(=O)[C@@H](C)[C@H](O)[C@@H](C)C(=O)[C@@H](C)[C@H](O)[C@@H](C)/C=C/C(=O)O[C@@H]2[C@H](C)[C@H](CC1)O[C@]1(CC[C@H](C)[C@H](C[C@@H](C)O)O1)[C@H]2C [Oligomycin]
cell killing of melanoma cells [1]: augment the cell killing
survival rates [1]: significantly lower survival rates
survival rates [2]: significantly lower survival rates
mitochondrial activity (Mitotracker Red fluorescence) (melanoma cells [3]): reduced below basal levels
cell survival (%) (melanoma cells [4]): further reduced
viability and proliferation (HEM): retained viability and proliferation
cell survival (%) [5, 6]: 25%
cell survival (%) [5, 7]: further reduced
